Assay results published in US12655116B2, “Substituted isophthalic acid diamides” (Bayer Aktiengesellschaft, priority 2020, dated 2026).

Legend:
ABUTH [1] = assay: Pre-emergence herbicidal action against ABUTH; assay type: in vivo, Abutilon theophrasti; conditions: for pest or weed control at 80 g/ha: Abutilon theophrasti, 504 h; for pest or weed control at 80 g/ha / Pre-emergence action against ABUTH (herbicidal activity): scored visually after 3 weeks vs untreated controls (100% = plants have died, 0% = like control plants), 80 g/ha; for Pre-emergence action against ABUTH (herbicidal activity in percent): dosage 20 g/ha, scored visually after 3 weeks vs untreated controls, 100% = plants have died, 0% = like control plants
From the text: (§1) Seeds of monocotyledonous and dicotyledonous weed plants and crop plants are laid out in sandy loam soil in wood-fiber pots and covered with soil. The compounds of the invention, formulated in the form of wettable powders (WP) or as emulsion concentrates (EC), are then applied to the surface of the covering soil in the form of an aqueous suspension or emulsion at a water application rate equivalent to 600 to 800 l/ha, with addition of 0.2% wetting agent. After the treatment, the pots are placed in a greenhouse and kept under good growth conditions for the trial plants. The damage to the test plants is scored visually after a test period of 3 weeks by comparison with untreated controls (herbicidal activity in percent (%): 100% activity=the plants have died, 0% activity=like control plants). […] The tables below illustrate, in an illustrative manner, the post-emergence herbicidal action of the compounds of the invention, the herbicidal activity being stated in percent.

AMARE [2] = assay: Pre-emergence herbicidal action against AMARE; assay type: in vivo, Amaranthus retroflexus; conditions: for pest or weed control at 20 g/ha / pest or weed control at 80 g/ha: Amaranthus retroflexus, 504 h
From the text: as §1

MATIN [3] = assay: Pre-emergence herbicidal action against MATIN; assay type: in vivo, Matricaria inodora; conditions: for pest or weed control at 80 g/ha: Tripleurospermum inodorum, 504 h
From the text: as §1

VERPE = assay: Pre-emergence herbicidal action against VERPE; assay type: in vivo, Veronica persica; conditions: dosage 80 g/ha; for pest or weed control at 80 g/ha: Veronica persica, 504 h
From the text: as §1

VIOTR = assay: Pre-emergence herbicidal action against VIOTR; assay type: in vivo, Viola tricolor; conditions: for pest or weed control at 80 g/ha: Viola tricolor, 504 h
From the text: as §1

DIGSA [4] = assay: Pre-emergence herbicidal action against DIGSA; assay type: in vivo, Digitaria sanguinalis
From the text: as §1

ABUTH [5] = assay: Post-emergence herbicidal action against ABUTH; assay type: in vivo, Abutilon theophrasti; conditions: visual assessment about 3 weeks after treatment vs untreated controls
Method: (§2) Seeds of monocotyledonous and dicotyledonous weed and crop plants are laid out in sandy loam soil in wood-fiber pots, covered with soil and cultivated in a greenhouse under good growth conditions. 2 to 3 weeks after sowing, the test plants are treated at the one-leaf stage. The compounds of the invention, formulated in the form of wettable powders (WP) or as emulsion concentrates (EC), are then sprayed onto the green parts of the plants in the form of an aqueous suspension or emulsion at a water application rate equivalent to 600 to 800 l/ha, with addition of 0.2% wetting agent. After the test plants have been left to stand in the greenhouse under optimal growth conditions for about 3 weeks, the action of the preparations is assessed visually in comparison to untreated controls (herbicidal action in percent (%): 100% activity=the plants have died, 0% activity=like control plants). […] The tables below illustrate, in an illustrative manner, the post-emergence herbicidal action of the compounds of the invention, the herbicidal activity being stated in percent.

AMARE [6] = assay: Post-emergence herbicidal action against AMARE; assay type: in vivo, Amaranthus retroflexus; conditions: 20 g/ha, visual assessment about 3 weeks after treatment, 100% = plants have died, 0% = like control plants; for pest or weed control at 20 g/ha: Amaranthus retroflexus, 504 h
Method: as §2

ECHCG [7] = assay: Post-emergence herbicidal action against ECHCG; assay type: in vivo, Echinochloa crus-galli; conditions: for pest or weed control at 20 g/ha: Echinochloa crus-galli, 504 h
Method: as §2

SETVI [8] = assay: Post-emergence herbicidal action against SETVI; assay type: in vivo, Setaria viridis; conditions: for pest or weed control at 20 g/ha: Setaria viridis, 504 h
Method: as §2

DIGSA [9] = assay: Post-emergence herbicidal action against DIGSA; assay type: in vivo, Digitaria sanguinalis
Method: as §2

ALOMY [10] = assay: Post-emergence herbicidal action against ALOMY; assay type: in vivo, Alopecurus myosuroides; conditions: dosage 20 g/ha, visual assessment about 3 weeks after treatment vs untreated controls
Method: as §2

ECHCG [11] = assay: Pre-emergence herbicidal action against ECHCG; assay type: in vivo, Echinochloa crus-galli; conditions: 80 g/ha
From the text: as §1

SETVI [12] = assay: Pre-emergence herbicidal action against SETVI; assay type: in vivo, Setaria viridis; conditions: dosage 80 g/ha
From the text: as §1

ALOMY [13] = assay: Pre-emergence herbicidal action against ALOMY; assay type: in vivo, Alopecurus myosuroides; conditions: 80 g/ha, pre-emergence, scored visually after 3 weeks vs untreated controls (100% = plants have died, 0% = like control plants)
From the text: as §1

AVEFA = assay: Pre-emergence herbicidal action against AVEFA; assay type: in vivo, Avena fatua; conditions: 80 g/ha, pre-emergence
From the text: as §1

MATIN [14] = assay: Post-emergence herbicidal action against MATIN; assay type: in vivo, Matricaria inodora; conditions: dosage 20 g/ha
Method: as §2

PHBPU = assay: Post-emergence herbicidal action against PHBPU; assay type: in vivo, Pharbitis purpurea; conditions: dosage 20 g/ha
Method: as §2

[15] = 20 g/ha, scored visually after 3 weeks vs untreated controls, 100% = plants have died, 0% = like control plants
[16] = 80 g/ha, scored visually after 3 weeks vs untreated controls, 100% = plants have died, 0% = like control plants
[17] = 80 g/ha, scored visually after 3 weeks vs untreated controls (100% = plants have died, 0% = like control plants)

Structure (SMILES) | Pre-emergence action against AMARE in % (AMARE [2]; [17]) | Pre-emergence action against MATIN in % (MATIN [3]; dosage 80 g/ha) | Pre-emergence action against VIOTR in % (VIOTR; dosage 80 g/ha) | Post-emergence action at 20 g/ha against AMARE in % (AMARE [6]) | Pre-emergence action against AMARE in % (AMARE [2]; [15]) | Pre-emergence action against ECHCG in % (ECHCG [11]) | Pre-emergence action against MATIN in % (MATIN [3]; dosage 20 g/ha) | Pre-emergence action against SETVI in % (SETVI [12]) | Pre-emergence action against VERPE in % (VERPE) | Pre-emergence action against DIGSA in % (DIGSA [4]; dosage 20 g/ha) | Pre-emergence action against DIGSA in % (DIGSA [4]; dosage 80 g/ha) | Pre-emergence action against ABUTH (herbicidal activity) (ABUTH [1]) | Pre-emergence action against ABUTH (herbicidal activity in percent) (ABUTH [1]) | Post-emergence action against ABUTH in % (ABUTH [5]; dosage 20 g/ha) | Post-emergence action against MATIN in % (MATIN [14]) | Post-emergence action against PHBPU in % (PHBPU) | Pre-emergence action against ALOMY (herbicidal activity) (ALOMY [13]) | Post-emergence action against ECHCG in % (ECHCG [7]; dosage 20 g/ha) | also measured
Cc1c(C(=O)Nc2nnnn2C)ccc(C(F)(F)F)c1C(=O)NC1COC1 [Example 1-41] | – | – | – | – | – | – | – | – | – | – | – | – | – | – | – | – | – | – | pest or weed control at 80 g/ha (ABUTH [1]): 100%; pest or weed control at 20 g/ha (AMARE [2]; [15]): 90%; pest or weed control at 80 g/ha (AMARE [2]; [16]): 100%; pest or weed control at 80 g/ha (MATIN [3]; dosage 80 g/ha): 100%; pest or weed control at 80 g/ha (VERPE): 90%; pest or weed control at 80 g/ha (VIOTR; dosage 80 g/ha): 100%; pest or weed control at 80 g/ha (DIGSA [4]; Digitaria sanguinalis, 504 h, dosage 80 g/ha): 100%; pest or weed control at 5 g/ha (ABUTH [5]; Abutilon theophrasti, 504 h, dosage 5 g/ha): 80%; pest or weed control at 20 g/ha (ABUTH [5]; Abutilon theophrasti, 504 h, dosage 20 g/ha): 80%; pest or weed control at 20 g/ha (AMARE [6]): 90%; pest or weed control at 20 g/ha (ECHCG [7]; dosage 20 g/ha): 90%; pest or weed control at 20 g/ha (SETVI [8]; dosage 20 g/ha): 80%; pest or weed control at 5 g/ha (DIGSA [9]; Digitaria sanguinalis, 504 h, 5 g/ha): 80%; pest or weed control at 20 g/ha (DIGSA [9]; Digitaria sanguinalis, 504 h, 20 g/ha): 90%
CN(C)C(=O)CNC(=O)c1c(C(F)(F)F)ccc(C(=O)Nc2nnnn2C)c1Cl [Example 1-142] | 100% | 90% | 90% | 90% | – | – | – | – | – | – | – | – | – | – | – | – | – | – | Post-emergence action against ALOMY in % (ALOMY [10]): 90%
Cn1nnnc1NC(=O)c1ccc(C(F)(F)F)c(C(=O)NCc2cccs2)c1Cl [Example 1-144] | 100% | 90% | 100% | 90% | 90% | 100% | 90% | 80% | 80% | 90% | 90% | – | – | – | – | – | – | – | Pre-emergence action against VIOTR in % (VIOTR; dosage 20 g/ha): 80%
CCNC(=O)c1c(Cl)ccc(C(=O)Nc2nnnn2C)c1Br [Example 1-350] | – | – | – | – | – | – | – | – | – | – | – | – | – | – | – | – | – | – | pest or weed control at 80 g/ha (ABUTH [1]): 100%; pest or weed control at 80 g/ha (ALOMY [13]; Alopecurus myosuroides, 504 h): 100%; pest or weed control at 20 g/ha (AMARE [2]; [15]): 100%; pest or weed control at 80 g/ha (AMARE [2]; [16]): 100%; pest or weed control at 80 g/ha (AVEFA; Avena fatua, 504 h): 90%; pest or weed control at 80 g/ha (ECHCG [11]; Echinochloa crus-galli, 504 h): 100%; pest or weed control at 80 g/ha (MATIN [3]; dosage 80 g/ha): 90%; pest or weed control at 80 g/ha (SETVI [12]; Setaria viridis, 504 h): 100%; pest or weed control at 80 g/ha (VERPE): 80%; pest or weed control at 80 g/ha (VIOTR; dosage 80 g/ha): 100%; pest or weed control at 20 g/ha (AMARE [6]): 100%; pest or weed control at 20 g/ha (ECHCG [7]; dosage 20 g/ha): 80%; pest or weed control at 20 g/ha (SETVI [8]; dosage 20 g/ha): 80%
CCn1nnnc1NC(=O)c1ccc(C(F)F)c(C(=O)Nc2ccccc2)c1Cl [Example 2-161] | 100% | 90% | 100% | 100% | 90% | – | 80% | – | 80% | – | – | 100% | 90% | 80% | 80% | 80% | – | – | –
CCn1nnnc1NC(=O)c1ccc(C(F)F)c(C(=O)NCC(F)(F)F)c1Br [Example 2-229] | 100% | 100% | 100% | 90% | 100% | 80% | 100% | 100% | 80% | – | 100% | 100% | 80% | 80% | 80% | 90% | 90% | 90% | Pre-emergence action against AVEFA in % (AVEFA): 90%; Post-emergence action against SETVI in % (SETVI [8]; dosage 20 g/ha): 80%
Cc1nnc(NC(=O)c2ccc(Br)c(C(=O)NCC(F)F)c2Cl)o1 [Example 6-145] | 100% | – | – | – | 90% | 90% | – | 100% | – | 90% | 100% | 100% | 100% | – | – | 80% | 90% | – | Post-emergence action against ALOMY in % (ALOMY [10]): 80%; Post-emergence action against SETVI in % (SETVI [8]; dosage 5 g/ha): 80%; Post-emergence action against SETVI in % (SETVI [8]; dosage 20 g/ha): 90%
Cc1nnc(NC(=O)c2ccc(C(F)F)c(C(=O)NC(C)C)c2Cl)o1 [Example 6-260] | 100% | 100% | – | 80% | 100% | 100% | 100% | 100% | 90% | 100% | 100% | 100% | 90% | 90% | 80% | 90% | 90% | 90% | Post-emergence action against ECHCG in % (ECHCG [7]; dosage 5 g/ha): 90%; Post-emergence action against DIGSA in % (DIGSA [9]; 5 g/ha): 90%; Post-emergence action against DIGSA (DIGSA [9]; 20 g/ha): 90%
Cc1nnc(NC(=O)c2ccc(C(F)F)c(C(=O)NCc3cccs3)c2Cl)o1 [Example 6-264] | 100% | – | – | 80% | 80% | – | – | 80% | 90% | – | – | – | – | – | – | – | – | – | Post-emergence action against DIGSA (DIGSA [9]; 20 g/ha): 80%
Cc1nnc(NC(=O)c2ccc(C(F)F)c(C(=O)NC(C)C3CC3)c2Br)o1 (stereo not drawn) [Example 6-267] | 100% | 100% | 80% | 90% | 90% | 80% | 90% | 80% | 90% | – | – | 100% | 90% | 80% | – | 80% | 80% | 90% | –
